Numbers after ± are expanded uncertainties.
Test: xn = mol fraction of the nth substance listed
Settings: 101 kPa, Liquid; for viscosity: Capillary tube (Ostwald / Ubbelohde) method

CCC(=O)[O-].CC[NH+]1CCNCC1 [N-ethylpiperazinium propionate] + CCO
Settings | mass density, 298.15 K [kg/m3] | mass density, 303.15 K [kg/m3] | mass density, 308.15 K [kg/m3] | mass density, 313.15 K [kg/m3] | viscosity, 298.15 K [mPa·s] | viscosity, 303.15 K [mPa·s] | viscosity, 308.15 K [mPa·s] | viscosity, 313.15 K [mPa·s]
x2 = 0 | 1008.36 ± 1.2 | 1004.38 ± 1.2 | 1000.33 ± 1.2 | 996.237 ± 1.2 | 243.49 ± 7.6 | 164.81 ± 4.6 | 113.44 ± 2.7 | 80.93 ± 1.8
x2 = 0.0971 | 1002.79 ± 1.1 | 998.809 ± 1.1 | 994.769 ± 1.1 | 990.695 ± 1.1 | 170.13 ± 4.6 | 119.44 ± 2.9 | 85.41 ± 1.8 | 61.23 ± 1.2
x2 = 0.2017 | 995.311 ± 0.94 | 991.322 ± 0.95 | 987.293 ± 0.97 | 983.232 ± 0.98 | 109.9 ± 2.4 | 82.6 ± 1.6 | 60.3 ± 1.1 | 44.79 ± 0.84
x2 = 0.3033 | 986.576 ± 0.86 | 982.598 ± 0.88 | 978.579 ± 0.89 | 974.526 ± 0.91 | 75.85 ± 1.4 | 55.8 ± 0.98 | 42.03 ± 0.72 | 32.1 ± 0.55
x2 = 0.3983 | 976.628 ± 0.81 | 972.658 ± 0.83 | 968.645 ± 0.85 | 964.592 ± 0.86 | 48.89 ± 0.86 | 37.01 ± 0.62 | 28.65 ± 0.46 | 22.63 ± 0.35
x2 = 0.5001 | 963.41 ± 0.79 | 959.429 ± 0.81 | 955.408 ± 0.82 | 951.35 ± 0.84 | 29.59 ± 0.49 | 23.34 ± 0.36 | 18.57 ± 0.28 | 15.06 ± 0.22
x2 = 0.6006 | 946.741 ± 0.79 | 942.745 ± 0.81 | 938.702 ± 0.83 | 934.623 ± 0.85 | 17.18 ± 0.28 | 14 ± 0.2 | 11.54 ± 0.16 | 9.602 ± 0.13
x2 = 0.6994 | 925.277 ± 0.83 | 921.231 ± 0.85 | 917.149 ± 0.87 | 913.029 ± 0.89 | 9.403 ± 0.15 | 7.923 ± 0.11 | 6.734 ± 0.09 | 5.766 ± 0.071
x2 = 0.8001 | 895.282 ± 0.93 | 891.163 ± 0.95 | 887.012 ± 0.97 | 882.818 ± 0.99 | 4.925 ± 0.077 | 4.279 ± 0.055 | 3.74 ± 0.048 | 3.286 ± 0.039
x2 = 0.8998 | 852.465 ± 1.1 | 848.243 ± 1.1 | 843.982 ± 1.1 | 839.679 ± 1.2 | 2.437 ± 0.038 | 2.175 ± 0.027 | 1.947 ± 0.024 | 1.749 ± 0.02

CCC(=O)[O-].CC[NH+]1CCNCC1 [N-ethylpiperazinium propionate] + CO
Settings | mass density, 298.15 K [kg/m3] | mass density, 303.15 K [kg/m3] | mass density, 308.15 K [kg/m3] | mass density, 313.15 K [kg/m3] | viscosity, 298.15 K [mPa·s] | viscosity, 303.15 K [mPa·s] | viscosity, 308.15 K [mPa·s] | viscosity, 313.15 K [mPa·s]
x2 = 0 | 1008.36 ± 1.2 | 1004.38 ± 1.2 | 1000.33 ± 1.2 | 996.237 ± 1.2 | 243.49 ± 7.6 | 164.81 ± 4.6 | 113.44 ± 2.7 | 80.93 ± 1.8
x2 = 0.107 | 1004.94 ± 1.1 | 1000.96 ± 1.1 | 996.919 ± 1.1 | 992.856 ± 1.1 | 172.19 ± 4.7 | 121.04 ± 2.9 | 86.27 ± 1.8 | 62.74 ± 1.3
x2 = 0.21 | 1000.73 ± 0.94 | 996.739 ± 0.95 | 992.724 ± 0.97 | 988.682 ± 0.98 | 123.07 ± 2.7 | 89.92 ± 1.8 | 65.93 ± 1.2 | 49.08 ± 0.96
x2 = 0.297 | 996.263 ± 0.87 | 992.299 ± 0.88 | 988.292 ± 0.9 | 984.255 ± 0.92 | 84.02 ± 1.6 | 63.49 ± 1.1 | 47.38 ± 0.83 | 36.14 ± 0.62
x2 = 0.402 | 989.36 ± 0.8 | 985.408 ± 0.82 | 981.411 ± 0.83 | 977.382 ± 0.85 | 52.96 ± 0.89 | 40.86 ± 0.67 | 31.63 ± 0.52 | 24.89 ± 0.4
x2 = 0.5021 | 980.548 ± 0.76 | 976.585 ± 0.78 | 972.582 ± 0.79 | 968.548 ± 0.81 | 32.54 ± 0.54 | 25.5 ± 0.4 | 20.36 ± 0.31 | 16.5 ± 0.24
x2 = 0.5994 | 968.97 ± 0.74 | 964.991 ± 0.76 | 960.968 ± 0.78 | 956.912 ± 0.8 | 18.41 ± 0.31 | 15.03 ± 0.22 | 12.4 ± 0.18 | 10.4 ± 0.14
x2 = 0.7015 | 951.447 ± 0.76 | 947.38 ± 0.78 | 943.3 ± 0.8 | 939.188 ± 0.82 | 9.416 ± 0.16 | 7.866 ± 0.11 | 6.73 ± 0.091 | 5.804 ± 0.072
x2 = 0.7998 | 925.328 ± 0.83 | 921.15 ± 0.85 | 916.957 ± 0.87 | 912.733 ± 0.9 | 4.331 ± 0.076 | 3.807 ± 0.05 | 3.366 ± 0.044 | 2.989 ± 0.036
x2 = 0.8999 | 879.78 ± 1 | 875.414 ± 1 | 871.008 ± 1.1 | 866.573 ± 1.1 | 1.754 ± 0.033 | 1.592 ± 0.02 | 1.451 ± 0.018 | 1.327 ± 0.017
